Test results taken from patent US4279905A, “1-Benzoxepin-5 (2H)-one derivatives and pharmaceutical compositions” (Kali-Chemie Pharma GmbH, priority 1979, dated 1981).

Assays:
[1] = Determination of acute toxicity (seven-day, single intraperitoneal dose); details: in vivo, ip, fasting white NMRI mouse, single dose i.p., probit analysis, read-out: LP50 i.p.
Description: The acute seven-day toxicity is determined by intraperitoneal administration of a single dose of the respective compound to a fasting white NMRI mouse. The LD50 -values are calculated via electronic data processing by a probit analysis as described in the book "Grundbegriffe der Biometrie" (Basic Biometrical Definitions) by L. Cavalli-Sforza, page 153 et seq., published by Gustav Fischer Verlag, Stuttgart, 1964.

gastric peristalsis = experiment: Testing of the gastric peristalsis (gastric pressure, barium chloride-stimulated stomach of narcotized rats); assay type: in vivo; details: 20 mg/kg intraperitoneally, BaCl2 50 mg/kg/h i.v. infusion, compared with control value before compound; for Change in gastric pressure-wave amplitude: the values are: decrease in gastric amplitude; for change in vivo at 20 mg/kg: Rattus norvegicus, ip, read-out: Frequency Decrease in %
Source text: To determine the functioning of the gastric peristalsis, rats weighing about 200 g are narcotized by means of ketamine hydrochloride and xylazine. A catheter is introduced into the Vena jugularis of the narcotized rats and a tracheal catheter into the trachea. A stomach probe is inserted into their stomach and tied thereto. The probe is connected via a three-way cock with a Statham pressure imparting device (P 23 DB). The stomach is sealed off by a ligature at the pylorus and at the cardia. The stomach is filled with 3 ml of a 0.9% aqueous sodium chloride solution. The pressure waves produced by the stomach are continuously registered by a suitable recording device such by a Watanabe Multicorder (MC 641).
In conducting the test, a control value is obtained by inducing a stimulation of the stomach through a lengthy intravenous infusion of 50 mg/kg/h of bariumchloride and the amplitude and frequency of resultant pressure waves are measured. Subsequently, in order to determine the pharmacological effects, the compounds to be tested are dissolved in physiological sodium chloride solution or are suspended in Tylose MH 50 solution. The solutions or suspensions are then administered intraperitoneally to the rats in a dose of 20 mg/kg. The amplitudes and frequencies of the pressure wave-like movements of the stomach as they occur with the test solution and after administration of the compound to be tested, are compared.

Row | Structure (SMILES) | LD50 at 168 h [1] [mg/kg] | Change in gastric pressure-wave amplitude (gastric peristalsis) [%] | change in vivo at 20 mg/kg (gastric peristalsis) [%]
1 | CNC1=CC(=O)c2ccccc2OC1 [A, 3-methylamino-1-benzoxepin-5(2H)-one] | 664 | 56 | -18
2 | CNC1=CC(=O)c2ccc(Cl)cc2OC1 [B, 3-methylamino-8-chloro-1-benzoxepin-5(2H)-one] | 450 | 58 | -16
3 | CC(C)NC1=CC(=O)c2ccccc2OC1 [C, 3-isopropylamino-1-benzoxepin-5(2H)-one] | 544 | 32 | -2
4 | O=C1C=C(NCCc2ccccc2)COc2ccccc21 [Compound F, 3-phenethylamino-1-benzoxepin-5(2H)-one] | – | 29 | -7
5 | NC1=CC(=O)c2ccccc2OC1 [D, 3-amino-1-benzoxepin-5(2H)-one] | 544 | 45 | -12
6 | CCCCNC1=CC(=O)c2ccccc2OC1 [E, 3-(n-butylamino)-1-benzoxepin-5(2H)-one] | 442 | 26 | 36
7 | O=C1C=C(N2CCN(Cc3ccccc3)CC2)COc2ccccc21 [G, 3-(N-benzylpiperazino)-1-benzoxepin-5(2H)-one] | 634 | 31 | 10
8 | O=C1C=C(N2CCOCC2)COc2ccccc21 [H, 3-morpholino-1-benzoxepin-5(2H)-one] | 650 | 12 | 17
9 | COCCNC1=CC(=O)c2ccccc2OC1 [I, 3-(β-methoxyethylamino)-1-benzoxepin-5(2H)-one] | – | 46 | 11
10 | CNC1=CC(=O)c2ccc(C)cc2OC1 [K, 3-methylamino-8-methyl-1-benzoxepin-5(2H)-one] | – | 55 | 4
11 | CNC1=CC(=O)c2cc(C)ccc2OC1 [L, 3-methylamino-7-methyl-1-benzoxepin-5(2H)-one] | – | 75 | 15
12 | CNC1=CC(=O)c2ccc(C(C)(C)C)cc2OC1 [M, 3-methylamino-8-tert.-butyl-1-benzoxepin-5(2H)-one] | – | 72 | 10
13 | CNC1=CC(=O)c2cc(Cl)ccc2OC1 [N, 3-methylamino-7-chloro-1-benzoxepin-5(2H)-one] | – | 46 | -1
14 | CNC1=CC(=O)c2cc(F)ccc2OC1 [O, 3-methylamino-7-fluoro-1-benzoxepin-5(2H)-one] | – | 37 | 1
